From article PMC10095747, “Modulatory Effects of Atractylodin and β-Eudesmol on Human Cytochrome P450 Enzymes: Potential Drug-Drug Interactions” (Molecules, 2023)
Read-outs that look alike come from different tables or passages of the source.

What was measured:
rCYP1A2 = biological target: T1, rCYP1A2 (Homo sapiens, UniProt P05177); test: luminogenic P450-Glo CYP450 inhibition assay, rCYP1A2; conditions: three independent experiments
T1 sequence (P05177 1-516): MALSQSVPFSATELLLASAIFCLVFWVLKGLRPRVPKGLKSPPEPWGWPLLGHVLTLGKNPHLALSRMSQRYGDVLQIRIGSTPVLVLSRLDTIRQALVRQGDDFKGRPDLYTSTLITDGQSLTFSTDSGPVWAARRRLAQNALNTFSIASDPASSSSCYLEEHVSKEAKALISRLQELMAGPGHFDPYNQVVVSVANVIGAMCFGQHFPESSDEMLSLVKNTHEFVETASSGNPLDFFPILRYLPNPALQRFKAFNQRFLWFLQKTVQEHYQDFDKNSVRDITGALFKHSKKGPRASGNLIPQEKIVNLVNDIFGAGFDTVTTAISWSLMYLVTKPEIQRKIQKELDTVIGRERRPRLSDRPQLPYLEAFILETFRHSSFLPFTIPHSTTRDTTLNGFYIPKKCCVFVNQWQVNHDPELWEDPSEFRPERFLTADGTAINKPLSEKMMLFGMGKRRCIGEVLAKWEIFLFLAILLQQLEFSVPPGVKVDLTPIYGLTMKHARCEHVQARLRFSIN
Description: (§1) The luminescent cytochrome P450 assay was used to determine CYP450-mediated (CYP1A2, 2C9, 2C19, 2D6, and 3A4) metabolism of atractylodin and β-eudesmol. The assay consisted of each recombinant human CYP450 (rCYP450), control membranes lacking P450 activity, a luminogenic CYP450 substrate (luciferin-ME substrate for rCYP1A2, luciferin-H substrate for rCYP2C9, luciferin-H EGE substrate for rCYP2C19, luciferin-ME EGE substrate for rCYP2D6, and luciferin-IPA substrate for rCYP3A4), KPO4 buffer, luciferin free water, NADPH regeneration system, and a luciferin detection reagent. The rCYP450 enzymes were generated from a baculovirus-infected insect cell expression system. The concentrations of the recombinant CYPs used were 0.5 (rCYP1A2 and rCYP2C9), 0.25 (rCYP2C19 and rCYP2D6) or 0.2 (rCYP3A4) pmol (0.5μL) per reaction. […] A luciferin product was produced after adding 25 µL of NADPH Regeneration System (solution A, solution B, and luciferin-free water) and incubated at 37 °C for 10 (rCYP1A2 and rCYP3A4), 20 (rCYP2C19 and rCYP2C9) or 30 (rCYP2D6) minutes. The reaction was stopped and converted to a luminescent signal after adding Luciferin Detection Reagent (50 µL) and incubated at 25 °C for 20 min. The luminescence signals obtained were determined using a Varioskan® Flash microplate reader (Waltham, MA, USA). The magnitude of luminescence in all of the samples represented CYP450 activity. […] All stock solutions were diluted with luciferin-free water until the final concentration of organic solvent was less than 0.25% (v/v) of the total reaction. The concentration range of atractylodin and β-eudesmol used were 2.74–686 µM and 2.25–562 µM, respectively. […] The concentration that inhibited the activity of each rCYP450 by 50% (IC50) was calculated using Calcusyn software (Cambridge, UK). Data are reported as the median (range) of the three independent experiments.

rCYP3A4 = rCYP3A4 (Homo sapiens, UniProt P08684); test: luminogenic P450-Glo CYP450 inhibition assay, rCYP3A4; conditions: three independent experiments
Description: as §1

[1] = system: all rCYP450s (rCYP1A2, rCYP2C9, rCYP2C19, rCYP2D6, rCYP3A4); test: luminogenic CYP450 inhibition assay, statement over all five rCYP450s
Description: The luminescent cytochrome P450 assay was used to determine CYP450-mediated (CYP1A2, 2C9, 2C19, 2D6, and 3A4) metabolism of atractylodin and β-eudesmol. The assay consisted of each recombinant human CYP450 (rCYP450), control membranes lacking P450 activity, a luminogenic CYP450 substrate (luciferin-ME substrate for rCYP1A2, luciferin-H substrate for rCYP2C9, luciferin-H EGE substrate for rCYP2C19, luciferin-ME EGE substrate for rCYP2D6, and luciferin-IPA substrate for rCYP3A4), KPO4 buffer, luciferin free water, NADPH regeneration system, and a luciferin detection reagent. The rCYP450 enzymes were generated from a baculovirus-infected insect cell expression system. The concentrations of the recombinant CYPs used were 0.5 (rCYP1A2 and rCYP2C9), 0.25 (rCYP2C19 and rCYP2D6) or 0.2 (rCYP3A4) pmol (0.5μL) per reaction. […] A luciferin product was produced after adding 25 µL of NADPH Regeneration System (solution A, solution B, and luciferin-free water) and incubated at 37 °C for 10 (rCYP1A2 and rCYP3A4), 20 (rCYP2C19 and rCYP2C9) or 30 (rCYP2D6) minutes. The reaction was stopped and converted to a luminescent signal after adding Luciferin Detection Reagent (50 µL) and incubated at 25 °C for 20 min. The luminescence signals obtained were determined using a Varioskan® Flash microplate reader (Waltham, MA, USA). The magnitude of luminescence in all of the samples represented CYP450 activity. […]

hCYP1A2 = system: hCYP1A2; parameters: method as in PMID 35139770; conditions: ligand-binding difference spectroscopy; cited from earlier work
hCYP3A4 = system: hCYP3A4; parameters: method as in PMID 35139770; conditions: ligand-binding difference spectroscopy; cited from earlier work
hCYP2C9 = system: hCYP2C9; parameters: method as in PMID 35139770; conditions: ligand-binding difference spectroscopy; cited from earlier work
hCYP2C19 = system: hCYP2C19; parameters: method as in PMID 35139770; conditions: ligand-binding difference spectroscopy; cited from earlier work

Chain of rCYP3A4 (P08684 whole entry): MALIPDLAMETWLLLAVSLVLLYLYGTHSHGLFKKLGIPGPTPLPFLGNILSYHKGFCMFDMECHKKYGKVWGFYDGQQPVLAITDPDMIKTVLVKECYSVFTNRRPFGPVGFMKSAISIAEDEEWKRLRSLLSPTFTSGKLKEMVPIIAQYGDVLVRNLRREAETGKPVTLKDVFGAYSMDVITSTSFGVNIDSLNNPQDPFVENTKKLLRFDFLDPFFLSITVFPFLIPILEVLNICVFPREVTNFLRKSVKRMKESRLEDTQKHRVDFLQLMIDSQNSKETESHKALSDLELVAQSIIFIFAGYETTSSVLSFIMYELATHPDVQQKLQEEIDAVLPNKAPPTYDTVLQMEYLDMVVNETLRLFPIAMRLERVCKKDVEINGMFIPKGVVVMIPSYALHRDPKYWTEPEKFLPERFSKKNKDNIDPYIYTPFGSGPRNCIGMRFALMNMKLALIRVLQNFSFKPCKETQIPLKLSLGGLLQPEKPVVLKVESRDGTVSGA

| SMILES | Median IC50 (Range) rCYP1A2 (rCYP1A2; median (range)) | IC50 (rCYP1A2; read-out: Median IC50 (Range) rCYP1A2, median (range)) [µM] | Median IC50 (Range) rCYP3A4 (rCYP3A4; median (range)) [µg/mL] | IC50 (rCYP3A4; read-out: Median IC50 (Range) rCYP3A4, median (range)) [µM] | inhibitory effects on all rCYP450s (potency class) [1] | IC50 (rCYP1A2; Median IC50 (Range) rCYP1A2, median (range)) [µM] | IC50 (rCYP3A4; Median IC50 (Range) rCYP3A4, median (range)) [µM] | binding to hCYP1A2 (hCYP1A2) | binding to hCYP3A4 (hCYP3A4) | binding to hCYP2C9 (hCYP2C9) | binding to hCYP2C19 (hCYP2C19) |
| --- | --- | --- | --- | --- | --- | --- | --- | --- | --- | --- | --- |
| C/C=C/C#CC#C/C=C/c1ccco1 [Atractylodin] | 90.6 (83.8–102.3) µg/ml | 497 | >125 | > 686 | weak (weak (IC50 ≥ 50 µM)) | – | – | – | – | – | – |
| C=C1CCC[C@]2(C)CC[C@@H](C(C)(C)O)C[C@@H]12 [β-Eudesmol] | – | – | – | – | – | > 562 | 219 | bound | bound | not | not |
